In assay [1] the test system is LPS-induced TNF-α release in peripheral blood mononuclear cells (PBMCs). Nature of the assay: PDE4 inhibitory activity in the PBMCs assay (LPS-induced TNF-α release). The settings on record: human PBMCs, LPS 3 ng/ml, 18 hours, TNF-α by ELISA. Format: cell-based. The method, then: The assay, which is based on the known inhibitory activity exerted by PDE4 inhibitors on the lipopolysaccharides (LPS)-induced tumour necrosis factor-alpha (TNF-α release in peripheral blood mononuclear cells (PBMCs), was performed according to a method previously described (Hatzelmann A. et al., J. Pharmacol. Exp. Ther., 2001; 297:267-279; Draheim R. et al., J. Pharmacol. Exp. Ther., 2004; 308:555-563. Cryopreserved human PBMCs, (100 μl/well) were incubated in 96-well plates (10^5 cells/well), for 30 min, in the presence or absence (50 microl) of the test compounds whose concentrations ranged from 10^−12 M to 10^−6M. Subsequently, LPS (3 ng/ml) was added. After 18 hours of incubation at 37° C. in a humidified incubator under an atmosphere of 95% air and 5% CO2, culture medium was collected and TNF-α measured by ELISA.
The effects of the tested compounds were calculated as percentage of inhibition of TNF-α release, assuming LPS-induced TNF-α production in the absence of inhibitor compound as 100% and basal TNF-α production of PBMCs in the absence of LPS as 0%.
On the technique in general: An ELISA detects its analyte on a solid surface through an enzyme-linked reagent.

The test system of assay [2] is PDE4 enzyme. Nature of the assay: In vitro PDE4 inhibitory activity in the cell free assay (cAMP disappearance, U937 cell supernatant). The class given is biochemical, human. The conditions noted are these: 1.6 μM cAMP, 30° C. 30 minutes. The method, then: The U937 human monocytic cell line was used as source of PDE4 enzyme. Cells were cultured, harvested and supernatant fraction prepared essentially as described in Torphy, T. J. et al., J. Pharmacol. Exp. Ther., 1992; 263:1195-1205. PDE4 activity was determined in cells supernatants by assaying cAMP disappearance from the incubation mixtures. 50 μl of cell supernatant were incubated at 30° C. for 30 minutes in a final volume of 200 μl in the presence of 1.6 μM cAMP with or without the test compound (50 μl).
The concentration of the test compounds ranged between 10^−12 M and 10^−6 M. Reactions were stopped by heat inactivation (2.5 minutes at 100° C.) and residual cAMP was measured using an electrochemiluminescence (ECL)-based immunoassay.
Percentage of inhibition of PDE4 activity was calculated, assuming cAMP disappearance in the absence of inhibitors as 100% and cAMP disappearance in heat inactivated samples as 0%.

In assay [3] the target is HPDE4. Kind of assay: Competition for high affinity HPDE4 ([H^3] rolipram binding). The conditions noted are these: 50% inhibition of the binding of [H^3] rolipram. The text has this: (§1) Advantageously the compounds of the invention are characterized by selectivity toward LPDE4 higher than that toward HPDE4 as obtained by the determination of their IC50. In the case of LPDE4, the IC50 is the molar concentration of the test compound producing 50% inhibition of cAMP disappearance, assessed as described in Cortijo, J. et al., Br. J. Pharmacol., 1993, 108: 562-568, while in the case of HPDE4, the IC50 is the molar concentration of the test compound producing 50% inhibition of the binding of [H^3] rolipram, assessed as described in Duplantier, A. J. et al., J. Med. Chem., 1996; 39: 120-125. Preferably the HPDE4/LPDE4 IC50 ratio for the compounds of the invention is higher than 5, preferably higher than 10, more preferably higher than 20 and even more preferably higher than 100.
(§2) The affinity toward LPDE4 and HPDE4 was assessed as previously described respectively in Cortijo J. et al., Br. J. Pharmacol., 1993, 108: 562-568 and Duplantier A. J. et al., J. Med. Chem., 1996; 39: 120-125. In the case of LPDE4, the IC50 is the molar concentration of the test compound producing 50% inhibition of cAMP disappearance, while in the case of HPDE4, the IC50 is the molar concentration of the test compound producing 50% inhibition of the binding of [H^3] rolipram.

Assay [4] deals with LPDE4. Kind of assay: Inhibition of low affinity LPDE4 (cAMP disappearance). The class given is biochemical. The conditions noted are these: ratio of IC50 values.
From the text: as §1, §2

In assay [5] the test system is T1, LPDE4.
T1 construct: LPDE4 IC50
The assay is described as above. The conditions noted are these: 50% inhibition of cAMP disappearance. The class given is biochemical.
From the text: as §1, §2

In general, IC50 refers to the point on the concentration scale where inhibition reaches its midpoint. High values mean weaker potency, low ones greater potency.

Turning to `COc1ccc(C(Cc2c(Cl)cncc2Cl)OC(=O)[C@@H](C)c2ccc(CC(C)C)cc2)cc1OC` (stereo partly drawn) [Compound 1, (S)-2-(4-isobutyl-phenyl)-propionic acid 2-(3,5-dichloro-pyridin-4-yl)-1-(3,4-dimethoxy-phenyl)-ethyl ester], the half-inhibitory concentration (IC50) in assay [1] (PBMC) was 69 nM; in assay [2], 118 nM.

With `COc1ccc(C(Cc2c(Cl)cncc2Cl)OC(=O)Cc2ccccc2)cc1OC` (stereo not drawn) [Compound 2, phenyl-acetic acid 2-(3,5-dichloro-pyridin-4-yl)-1-(3,4-dimethoxy-phenyl)-ethyl ester], in assay [1] (PBMC), the IC50 turned out to be 89 nM.

In the case of `COc1ccc(C(Cc2c(Cl)cncc2Cl)OC(=O)C2(c3ccccc3)CC2)cc1OC` (stereo not drawn) [Compound 3, 1-phenyl-cyclopropanecarboxylic acid 2-(3,5-dichloro-pyridin-4-yl)-1-(3,4-dimethoxy-phenyl)-ethyl ester], the half-maximal inhibitory concentration (IC50) in assay [1] (PBMC) was found to be 52 nM; in assay [2], 118 nM.

Take `COc1ccc(C(=O)OC(Cc2c(Cl)cncc2Cl)c2ccc(OC)c(OC)c2)cc1OC` (stereo not drawn) [Compound 4, 3,4-dimethoxy-benzoic acid 2-(3,5-dichloro-pyridin-4-yl)-1-(3,4-dimethoxy-phenyl)-ethyl ester]: the results for the half-maximal inhibitory concentration (IC50) in assay [1] (PBMC) and in assay [2] were 34.2 nM and 3.4 nM, respectively.

Regarding `CC(C)(C)OC(=O)N[C@@H](C(=O)OC(Cc1c(Cl)cncc1Cl)c1ccc(OC(F)F)c(OCC2CC2)c1)c1ccccc1` (stereo partly drawn) [Compound 6, (R)-tert-butoxycarbonylamino-phenyl-acetic acid 1-(3-cyclopropylmethoxy-4-difluoromethoxy-phenyl)-2-(3,5-dichloro-pyridin-4-yl)-ethyl ester], the half-inhibitory concentration (IC50) was determined as 95 nM in assay [1] (PBMC) and 9 nM in assay [2].

`N[C@H](C(=O)OC(Cc1c(Cl)cncc1Cl)c1ccc(OC(F)F)c(OCC2CC2)c1)c1ccccc1` (stereo partly drawn) [Compound 7, (S)-amino-phenyl-acetic acid 1-(3-cyclopropylmethoxy-4-difluoromethoxy-phenyl)-2-(3,5-dichloro-pyridin-4-yl)-ethyl ester]: the half-inhibitory concentration (IC50) in assay [1] (PBMC) came to 99 nM; in assay [2], 7 nM.

Molecule `N[C@@H](C(=O)OC(Cc1c(Cl)cncc1Cl)c1ccc(OC(F)F)c(OCC2CC2)c1)c1ccccc1` (stereo partly drawn) [Compound 8, (R)-amino-phenyl-acetic acid 1-(3-cyclopropylmethoxy-4-difluoromethoxy-phenyl)-2-(3,5-dichloro-pyridin-4-yl)-ethyl ester] had an IC50 in assay [2] of 22 nM.

In the case of `COc1ccc(C(Cc2c(Cl)cncc2Cl)OC(=O)C(C)c2ccc(CC(C)C)cc2)cc1OC1CCCC1` (stereo not drawn) [Compound 9, 2-(4-isobutyl-phenyl)-propionic acid 1-(3-cyclopentyloxy-4-methoxy-phenyl)-2-(3,5-dichloro-pyridin-4-yl)-ethyl ester], the IC50 in assay [1] (PBMC) came to 85 nM; in assay [2], 22 nM; in assay [3], 399 nM; in assay [5], 0.738 nM. For the same molecule, in assay [4], the HPDE4/LPDE4 was 541.

As for `O=C(OC(Cc1c(Cl)cncc1Cl)c1ccc(OC(F)F)c(OCC2CC2)c1)c1ccc(OC(F)F)c(OCC2CC2)c1` (stereo not drawn) [Compound 11, 3-cyclopropylmethoxy-4-difluoromethoxy-benzoic acid 1-(3-cyclopropylmethoxy-4-difluoromethoxy-phenyl)-2-(3,5-dichloro-pyridin-4-yl)-ethyl ester], the IC50 turned out to be 51 nM in assay [1] (PBMC), 12 nM in assay [2], 153 nM in assay [3] and 0.116 nM in assay [5]. Besides, in assay [4], the HPDE4/LPDE4 was 1319.

Turning to `CC(C)Cc1ccc(C(C)C(=O)OC(Cc2c(Cl)cncc2Cl)c2ccc(OC(F)F)c(OCC3CC3)c2)cc1` (stereo not drawn) [Compound 12, 2-(4-isobutyl-phenyl)-propionic acid 1-(3-cyclopropylmethoxy-4-difluoromethoxy-phenyl)-2-(3,5-dichloro-pyridin-4-yl)-ethyl ester], the half-maximal inhibitory concentration (IC50) is 456 nM in assay [1] (PBMC) and 12 nM in assay [2].

Turning to `COc1ccc(C(Cc2c(Cl)c[n+]([O-])cc2Cl)OC(=O)C(C)c2ccc(CC(C)C)cc2)cc1OC` [Compound 13, (S)-2-(4-isobutyl-phenyl)-propionic acid 2-(3,5-dichloro-1-oxy-pyridin-4-yl)-1-(3,4-dimethoxy-phenyl)-ethyl ester], the concentration for half-maximal inhibition (IC50) in assay [1] (PBMC) came to 13 nM.

For the molecule `O=C(OC(Cc1c(Cl)c[n+]([O-])cc1Cl)c1ccc(OC(F)F)c(OCC2CC2)c1)c1ccc(OC(F)F)c(OCC2CC2)c1` (stereo not drawn) [Compound 14, 3-cyclopropylmethoxy-4-difluoromethoxy-benzoic acid 1-(3-cyclopropylmethoxy-4-difluoromethoxy-phenyl)-2-(3,5-dichloro-1-oxy-pyridin-4-yl)-ethyl ester], half-maximal inhibition in assay [1] (PBMC) (IC50) was put at 2 nM.

Take `CC(C)Cc1ccc(C(C)C(=O)OC(Cc2c(Cl)c[n+]([O-])cc2Cl)c2ccc(OC(F)F)c(OCC3CC3)c2)cc1` (stereo not drawn) [Compound 15, 2-(4-isobutyl-phenyl)-propionic acid 1-(3-cyclopropylmethoxy-4-difluoromethoxy-phenyl)-2-(3,5-dichloro-1-oxy-pyridin-4-yl)-ethyl ester]: the concentration for half-maximal inhibition (IC50) in assay [1] is 15 nM; in assay [2], 8.6 nM; in assay [3], 2.17 nM; in assay [5], 0.169 nM. Besides, in assay [4], the HPDE4/LPDE4 came out at 273.

As to `COc1ccc(C(Cc2c(Cl)cncc2Cl)OC(=O)C(C)c2ccc(N)cc2)cc1OC` (stereo not drawn) [Compound 16, 2-(4-amino-phenyl)-propionic acid 2-(3,5-dichloro-pyridin-4-yl)-1-(3,4-dimethoxy-phenyl)-ethyl ester], the IC50 in assay [1] (PBMC) came out at 36 nM; in assay [2], 6.3 nM.

As for `COc1ccc(C(O)Cc2c(Cl)c[n+]([O-])cc2Cl)cc1OC1CCCC1` (stereo not drawn) [Compound 20], the half-maximal inhibitory concentration (IC50) in assay [3] is 299 nM; in assay [5], 0.759 nM. For the same molecule, in assay [4], the HPDE4/LPDE4 turned out to be 394.

These data come from patent publication US9102619B2, “Derivatives of 1-phenyl-2-pyridinyl alkyl alcohols as phosphodiesterase inhibitors” (Chiesi Farmaceutici S.p.A., priority 2007, dated 2015).
